Test results reported in US12172975B2, “1H-indazole carboxamides as receptor-interacting protein kinase 1 inhibitors (RIPK1)” (BRISTOL-MYERS SQUIBB COMPANY, priority 2018, dated 2024).
Where a name gives a salt, the structure may show the parent alone. Read-outs that look alike come from different tables or passages of the source.

Key:
[1] = system: MLKL phosphorylation in HT29-L23 human colorectal adenocarcinoma cells; assay: MLKL Phosphorylation High-Content Assay; type: cell-based; conditions: 6 h, necroptosis induced with TNFα, SMAC mimetic and Z-VAD, read-out: pMLKL (IC50)
In short: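 HT29-L23 cells were induced to necroptosis with TNFα (35 ng/mL), SMAC mimetic (700 nM) and Z-VAD (140 nM) for 6 h at 37 °C. Phospho-MLKL (S358) immunofluorescence was imaged and quantified per cell; maximal inhibition set by Nec-1s (6.25 μM), and IC50/Ymax from 4-parameter logistic fit.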

[2] = molecular target: His-GST-TVMV-hRIPK1 (1-324) (Homo sapiens (Human), UniProt Q13546); assay: RIPK1 HTRF Binding Assay; conditions: read-out: RIPK1 HTRF (IC50); FRET probe displacement, 1 h at rt
Chain of His-GST-TVMV-hRIPK1 (1-324) (Q13546 1-324): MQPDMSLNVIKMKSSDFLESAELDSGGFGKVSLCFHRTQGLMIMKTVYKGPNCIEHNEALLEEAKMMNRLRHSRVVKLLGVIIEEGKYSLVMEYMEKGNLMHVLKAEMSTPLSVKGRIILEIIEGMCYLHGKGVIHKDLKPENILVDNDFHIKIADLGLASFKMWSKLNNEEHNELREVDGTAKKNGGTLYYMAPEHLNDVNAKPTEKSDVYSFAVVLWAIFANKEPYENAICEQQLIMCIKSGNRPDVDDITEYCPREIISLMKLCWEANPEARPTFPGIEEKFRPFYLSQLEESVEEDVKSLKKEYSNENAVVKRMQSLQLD
Method: A solution was prepared containing 0.2 nM Anti GST-Tb (Cisbio, 61GSTTLB), 90.6 nM probe and 1 nM His-GST-TVMV-hRIPK1 (1-324) in FRET Buffer (20 mM HEPES, 10 mM MgCl2, 0.015% Brij-35, 4 mM DTT, 0.05 mg/mL BSA). Using Formulatrix Tempest, the detection antibody/enzyme/probe solution (2 mL) was dispensed into wells of a 1536 plate (Black Low Binding Polystyrene 1536 Plate (Corning, 3724)) containing 10 nL of compounds of interest at appropriate concentration in DMSO. The plate was incubated at rt for 1 h. FRET was measured using the EnVision plate reader (Excitation: 340 nm, Emission: 520 nm/495 nM). Total signal (0% inhibition) was calculated from wells containing 10 nL DMSO only.

SMILES | IC50 ([1]; Homo sapiens) | IC50 [2] | IC50 [1]
[2H]C([2H])([2H])C([2H])([2H])NC(=O)c1n[nH]c2cc(-c3cnc(OC)c(C(=O)NCc4ccccc4OC(F)(F)F)c3)ccc12 [Example 183, N-[(1,1,2,2,2-deutero)ethyl]-6-[6-methoxy-5-({[2-(trifluoro-methoxy)phenyl]methyl}carbam-oyl)pyridin-3-yl]-1H-indazole-3-carboxamide] | 15 nM | 5.9 nM | 
CNC(=O)c1n[nH]c2cc(-c3cnc(OC)c(C(=O)NCc4ccccc4OCC(F)(F)F)c3)ccc12 [Example 75, 6-[6-methoxy-5-({[2-(2,2,2-trifluoroethoxy)phenyl]-methyl}carbamoyl)pyridin-3-yl]-N-methyl-1H-indazole-3-carboxamide, TFA] |  | 1.8 nM | 4.4 nM
CNC(=O)c1n[nH]c2cc(-c3cnc(OC)c(C(=O)NCc4ccccc4C#N)c3)ccc12 [Example 84, 6-(5-{[(2-cyanophenyl)methyl]-carbamoyl}-6-methoxypyridin-3-yl)-N-methyl-1H-indazole-3-carboxamide] | 180 nM | 45 nM | 
[2H]C([2H])([2H])Oc1ncc(-c2ccc3c(C(=O)NC4CC4)n[nH]c3c2)cc1C(=O)N[C@H](C)c1cccc(OC(F)(F)F)c1 [Example 202, N-cyclopropyl-6-[6-(deutero)-methoxy-5-{[(1R)-1-[3-(trifluoro-methoxy)phenyl]ethyl]carbam-oyl}pyridin-3-yl]-1H-indazole-3-carboxamide] | 53 nM | 36 nM | 
[2H]C([2H])([2H])NC(=O)c1n[nH]c2cc(-c3cnc(OC([2H])([2H])[2H])c(C(=O)N[C@@H]4CN(C(=O)C5CC(F)(F)C5)C[C@@H]4F)c3)ccc12 [Example 12, 6-(5-(((3R,4S)-1-(3,3-difluorocyclobutanecarbonyl)-4-fluoropyrrolidin-3-yl)carbamoyl)-6-methoxyd3-pyridin-3-yl)-N-methyl d3-1H-indazole-3-carboxamide] | 400 nM | 42 nM | 
CNC(=O)c1n[nH]c2cc(-c3cnc(OC)c(C(=O)NCc4cc(F)cc(F)c4OC(C)C)c3)ccc12 [Example 126, 6-[5-({[3,5-difluoro-2-(propan-2-yloxy)phenyl]methyl}-carbamoyl)-6-methoxypyridin-3-yl]-N-methyl-1H-indazole-3-carboxamide] | 6.9 nM | 4.2 nM | 
[2H]C([2H])([2H])Oc1ncc(-c2ccc3c(C(=O)NC)n[nH]c3c2)cc1C(=O)NCC(C)(C)C(=O)OC(C)(C)C [Example 28, tert-butyl 3-{[2-(deutero)meth-oxy-5-[3-(methylcarbamoyl)-1H-indazol-6-yl]pyridin-3-yl]form-amido}-2,2-dimethylpropanoate, TFA] | 37 nM | 17 nM | 
CNC(=O)c1n[nH]c2cc(-c3cnc(OC)c(C(=O)NCC4CCCC4(C)C)c3)ccc12 (stereo not shown) [Example 116, 6-(5-{[(2,2-dimethylcyclo-pentyl)methyl]carbamoyl}-6-methoxypyridin-3-yl)-N-methyl-1H-indazole-3-carbox-amide] |  | 9.6 nM | 54 nM
COc1ncc(-c2ccc3c(C(=O)NC4CCN(C(C)=O)CC4)n[nH]c3c2)cc1C(=O)NCc1ccccc1OC(F)(F)F [Example 180, N-(1-acetylpiperidin-4-yl)-6-[6-methoxy-5-({[2-(trifluoro-methoxy)phenyl]methyl}carbam-oyl)pyridin-3-yl]-1H-indazole-3-carboxamide] | 39 nM | 19 nM | 
[2H]C([2H])([2H])Oc1ncc(-c2ccc3c(C(=O)NC)n[nH]c3c2)cc1C(=O)NCCC(=O)OC(C)(C)C [Example 26, tert-butyl 3-{[2-(deutero)methoxy-5-[3-(methylcarbamoyl)-1H-indazol-6-yl]pyridin-3-yl]form-amido}propanoate] | 90 nM | 82 nM | 
[2H]C([2H])([2H])Oc1ncc(-c2ccc3c(C(=O)NCC4CC4)n[nH]c3c2)cc1C(=O)NC(C)c1ccccc1OC(F)(F)F (stereo not shown) [Example 168, N-(cyclopropylmethyl)-6-[6-(deutero)methoxy-5-({1-[2-(tri-fluoromethoxy)phenyl]ethyl}-carbamoyl)pyridin-3-yl]-1H-indazole-3-carboxamide] | 17 nM | 38 nM | 
CNC(=O)c1n[nH]c2cc(-c3cnc(OC)c(C(=O)NCCCOc4ccccc4)c3)ccc12 [Example 55, 6-{6-methoxy-5-[(3-phenoxy-propyl)carbamoyl]pyridin-3-yl}-N-methyl-1H-indazole-3-carboxamide] | 27 nM | 12 nM | 
CNC(=O)c1n[nH]c2cc(-c3cnc(OC)c(C(=O)NC4CCCC(NC(=O)C(C)(C)C)C4)c3)ccc12 (single isomer, unassigned) [Example 17, 6-(6-methoxy-5-((3-pivalamidocyclohexyl)carbamoyl)pyridin-3-yl)-N-methyl-1H-indazole-3-carboxamide] | 19 nM | 21 nM | 
CCN(CC)C(=O)C1CCCC(NC(=O)c2cc(-c3ccc4c(C(=O)NC)n[nH]c4c3)cnc2OC)C1 (stereo not shown) [Example 121, 6-(5-{[3-(diethylcarbamoyl)-cyclohexyl]carbamoyl}-6-methoxypyridin-3-yl)-N-methyl-1H-indazole-3-carbox-amide] |  | 6.1 nM | 7.5 nM
COc1ncc(-c2ccc3c(C(=O)NCCCN4CCCC4=O)n[nH]c3c2)cc1C(=O)NCc1ccccc1OC(F)(F)F [Example 177, 6-[6-methoxy-5-({[2-(trifluoro-methoxy)phenyl]methyl}-carbamoyl)pyridin-3-yl]-N-[3-(2-oxopyrrolidin-1-yl)propyl]-1H-indazole-3-carboxamide] | 15 nM | 2.9 nM | 
CNC(=O)c1n[nH]c2cc(-c3cnc(OC)c(C(=O)NCC(C)(C)C(=O)OC(C)(C)C)c3)ccc12 [Example 90, tert-butyl 3-({2-methoxy-5-[3-(methylcarbamoyl)-1H-indazol-6-yl]pyridin-3-yl}-formamido)-2,2-dimethyl-propanoate] | 47 nM | 16 nM | 
[2H]C([2H])([2H])Oc1ncc(-c2ccc3c(C(=O)NC)n[nH]c3c2)cc1C(=O)N[C@H](C)c1cccc(C(F)(F)F)c1 [Example 34, 6-[6-(deutero)methoxy-5-{[(1R)-1-[3-(trifluoromethyl)phenyl]-ethyl]carbamoyl}pyridin-3-yl]-N-methyl-1H-indazole-3-carbox-amide] | 92 nM | 57 nM | 
[2H]C([2H])([2H])Oc1ncc(-c2ccc3c(C(=O)NC)n[nH]c3c2)cc1C(=O)NC(C)c1cc(F)ccc1C(F)(F)F (stereo not shown) [Example 36, 6-[5-({1-[5-fluoro-2-(trifluoro-methyl)phenyl]ethyl}carbamoyl)-6-(deutero)methoxypyridin-3-yl]-N-methyl-1H-indazole-3-carbox-amide] | 20 nM | 9.3 nM | 
CNC(=O)c1n[nH]c2cc(-c3cnc(OC)c(C(=O)NCCC(=O)OC(C)(C)C)c3)ccc12 [Example 74, tert-butyl 3-({2-methoxy-5-[3-(methylcarbamoyl)-1H-indazol-6-yl]pyridin-3-yl}formamido)-propanoate] | 62 nM | 28 nM | 
CCOC(=O)C(C)(C)CNC(=O)c1cc(-c2ccc3c(C(=O)NC)n[nH]c3c2)cnc1OC [Example 88, ethyl 3-({2-methoxy-5-[3-(methylcarbamoyl)-1H-indazol-6-yl]pyridin-3-yl}-formamido)-2,2-dimethyl-propanoate] | 250 nM | 52 nM | 
CNC(=O)c1n[nH]c2cc(-c3cnc(OC)c(C(=O)NC4CCCC(C(=O)N5CCCC5)C4)c3)ccc12 (stereo not shown) [Example 99, 6-(6-methoxy-5-{[3-(pyrrol-idine-1-carbonyl)cyclohexyl]-carbamoyl}pyridin-3-yl)-N-methyl-1H-indazole-3-carbox-amide] |  | 11 nM | 14 nM
CNC(=O)c1n[nH]c2cc(-c3cnc(OC)c(C(=O)NCc4cccc(OCC5CCC5)c4)c3)ccc12 [Example 115, 6-[5-({[3-(cyclobutylmeth-oxy)phenyl]methyl}carbam-oyl)-6-methoxypyridin-3-yl]-N-methyl-1H-indazole-3-carboxamide] |  | 0.04 nM | 100 nM
[2H]C([2H])([2H])Oc1ncc(-c2ccc3c(C(=O)NC4CC4)n[nH]c3c2)cc1C(=O)N[C@@H]1CN(C(=O)C2CC(F)(F)C2)C[C@@H]1F [Example 190, N-cyclopropyl-6-(5-{[(3R,4S)-1-(3,3-difluorocyclobutanecarbonyl)-4-fluoropyrrolidin-3-yl]carbamoyl}-6-(deutero)methoxypyridin-3-yl)-1H-indazole-3-carboxamide] | 290 nM | 100 nM | 
COc1ncc(-c2ccc3c(C(=O)NC4CCN(S(C)(=O)=O)CC4)n[nH]c3c2)cc1C(=O)NCc1ccccc1OC(F)(F)F [Example 169, N-(1-methanesulfonylpiperidin-4-yl)-6-[6-methoxy-5-({[2-(trifluoromethoxy)phenyl]-methyl}carbamoyl)pyridin-3-yl]-1H-indazole-3-carboxamide] | 31 nM | 22 nM | 
CNC(=O)c1n[nH]c2cc(-c3cnc(OC)c(C(=O)NCc4cccnc4OC)c3)ccc12 [Example 94, 6-(6-methoxy-5-{[(2-methoxy-pyridin-3-yl)methyl]carbam-oyl}pyridin-3-yl)-N-methyl-1H-indazole-3-carboxamide, TFA] |  | 9.9 nM | 96 nM
[2H]C([2H])([2H])NC(=O)c1n[nH]c2cc(-c3cnc(OC([2H])([2H])[2H])c(C(=O)NC(C)c4cc(F)ccc4C(F)(F)F)c3)ccc12 (stereo not shown) [Example 212] | 28 nM | 15 nM | 
